# Data as given in patent US20250304593A1 (Skyhawk Therapeutics, Inc., priority 2022, published 2025).
# How the values were obtained:
# [1] = test system: ATXN3 transcripts containing exon 4 (E4E5); assay: ATXN3 quantitative splicing assay (qPCR, E4E5 primers/probe detecting transcripts containing exon 4); assay type: cell-based; settings: Homo sapiens, SK-N-MC cells, 24 h treatment
# Method: Human neuroblastoma SK-N-MC cells were plated in 384-well plates at 20,000 cells/well. Twenty-four hours after plating, cells were treated with compounds for 24 h at appropriate concentrations ranging from 30.M to 0.6 nM (0.300 DMS0). Treated cells were lysed in 15.L of lysis buffer, and cDNA was synthesized using the Fast Advanced Cells-to-Ct kit. Two L of each cDNA was used in qPCR reactions to confirm the exon 4 skipped transcripts of ATXN3. A second set of primers/probe E4E5 was used to detect the transcripts containing exon 4. The third set of primers/probe E8E9 was used to detect total gene level of ATXN3. The qPCR reactions were prepared in 384-well plates in 10 L volume, using TaqMan™ Fast Advanced Master Mix with primers and probes shown in the table below. Reactions were run in a Quant Studio 6 qPCR instrument with default settings.
# The primers and probes are listed below in Table 4.
# total ATXN3 protein = assay: ATXN3 total protein assay (Mesoscale Discovery); assay type: cell-based, Human; settings: SK-N-MC cells, 48 hours incubation, MSD assay; read-out: ATXN3 Potency - Protein IC50
# Method: Human neuroblastoma SK-N-MC cells were seeded at 10,000 cells/well in 384 well plates one day prior to compound treatment. The concentrations of compounds were tested at appropriate doses ranging from 30 µM to 0.6 nM. After incubation for 48 hours, the cells were lysed with 25.L of lysis buffer containing protease inhibitors, and total ATXN3 protein levels were assessed by Mesoscale Discovery (MSD) assay developed with one pair of anti-ATXN3 antibodies. The capture and detect antibodies were raised in mouse and rabbit respectively. Anti-rabbit MSD-ST antibody was used for secondary antibody.
# ATXN3 recombinant protein was used for standards. The readouts were captured with 35 μL of MSD read buffer and multi-array 384-well high binding plates.
# ATXN3-HiBiT protein = assay: ATXN3 HiBiT assay (luminescence, Kelly-ATXN3-HiBiT cell line); assay type: cell-based; settings: Kelly-ATXN3-HiBiT cells, read out 48 h after addition of compound
# Description: To monitor ATXN3 protein levels by luminescence, a Kelly-ATXN3-HiBiT cell line with homozygous knock-in of HiBiT at the C-terminus of the endogenous ATXN3 gene was used (knock-in of the HiBiT-tag coding sequence SEQ ID NO. 14: 5′[…]3′ into exon 11 of ATXN3 -position 1114 of ATXN3 RefSeq NM_004993.6). Manipulations of the Kelly-ATXN3-HiBiT cell line that result in downregulation of the ATXN3-HiBiT protein (through modulation of ATXN3-HiBiT pre-mRNA splicing) can be followed by monitoring the luminescence signal of the HiBiT tag using the Nano Glo HiBiT Lytic Detection System (Promega, #N3050). Kelly-ATXN3-HiBiT cells were maintained in RPMI 1640 w/Glutamax (Gibco, #61870010), 10% FBS (Sigma Aldrich, #F8687), 1% Penicillin/Streptomycin (Gibco, #15140-122) at 37° C., 5% CO2. To assess HiBiT-luminescence signal upon compound treatment, 2000 Kelly-ATXN3-HiBiT cells were seeded per well in 384 plate format. Compounds were added 24 h after seeding. ATXN3-HiBiT-luminescence signal was read out 48 h after addition of the compound using the Nano Glo HiBiT Lytic Detection System (Promega, #N3050) according to the manufacturer's instructions. To control for cell viability, an identically prepared sister plate was read out with the CellTiter-Glo® 2.0 Assay (Promega, #G9243) according to the manufacturer's instructions. Fold changes of ATXN3-HiBiT-luminescence and of CellTiter-Glo viability signals were calculated relative to a DMSO control condition.
Compound,IC50 [1] [nM],IC50 (total ATXN3 protein) [nM],EC50 (ATXN3-HiBiT protein) [nM]
"C[C@H](F)[C@H](N)Cc1oc2c(NCc3nccs3)nc(Cl)nc2c1Br [Compound 18, 2-[(2R,3S)-2-amino-3-fluoro-butyl]-3-bromo-5-chloro-7-{[(1,3-thiazol-2-yl)methyl]-amino}-1-oxa-4,6-diaza-indene]",101 to 500,101 to 500,101 to 500
Cc1c(C[C@H](C)N)oc2c(NCc3nccs3)nc(Cl)nc12 [Compound 7],10000 to 40000,10000 to 40000,
"C#Cc1c(C[C@@H](N)[C@H](C)F)oc2c(NCc3ccco3)nc(Cl)nc12 [Compound 12, 2-[(2R,3S)-2-amino-3-fluoro-butyl]-5-chloro-3-ethynyl-7-(furfurylamino)-1-oxa-4,6-diazaindene]",0.01 to 100,0.01 to 100,0.01 to 100
"Cc1c(C[C@H](C)N)oc2c(NCc3ccco3)nc(Cl)nc12 [Compound 8, 2-[(S)-2-aminopropyl]-5-chloro-7-(furfurylamino)-3-methyl-1-oxa-4,6-diaza-indene]",501 to 5000,501 to 5000,
"CC(N)Cc1cc2nc(Cl)nc(NCc3ccccc3)c2o1 (centres unmarked) [Compound 2, 2-(2-aminopropyl)-7-benzyl-amino-5-chloro-1-oxa-4,6-diazaindene]",10000 to 40000,10000 to 40000,
"C/C=C/c1cc2nc(Cl)nc(NCc3ccccc3)c2o1 [Compound 5, N-benzyl-2-chloro-6-(prop-1-en-1-yl)furo[3,2-d]pyrimidin-4-amine]",10000 to 40000,10000 to 40000,
"CC(N)Cc1cc2nc(Cl)nc(NCc3ccncc3)c2o1 (centres unmarked) [Compound 1, 6-(2-aminopropyl)-2-chloro-N-(pyridin-4-ylmethyl)furo [3,2-d]pyrimidin-4-amine]",10000 to 40000,10000 to 40000,
"C[C@H](N)Cc1oc2c(NCc3cccs3)nc(Cl)nc2c1Br [Compound 32, 6-[(2S)-2-aminopropyl]-7-bromo-2-chloro-N-(thiophen-2-ylmethyl)furo[3,2-d]pyrimidin-4-amine]",101 to 500,101 to 500,101 to 500
"C[C@H](F)[C@H](N)Cc1oc2c(NCc3cccs3)nc(Cl)nc2c1Br [Compound 15, 2-[(2R,3S)-2-amino-3-fluoro-butyl]-3-bromo-5-chloro-7-thenylamino-1-oxa-4,6-diazaindene]",0.01 to 100,101 to 500,101 to 500
"C[C@H](F)[C@H](N)Cc1oc2c(NCc3ccncc3)nc(Cl)nc2c1Br [Compound 20, 2-[(2R,3S)-2-amino-3-fluoro-butyl]-3-bromo-5-chloro-7-{[(4-pyridyl)methyl]amino}-1-oxa-4,6-diazaindene]",0.01 to 100,101 to 500,0.01 to 100
"C#Cc1c(C[C@@H](N)[C@H](C)F)oc2c(NCc3cccs3)nc(Cl)nc12 [Compound 13, 6-[(2R,3S)-2-amino-3-fluorobutyl]-2-chloro-7-ethynyl-N-(thiophen-2-ylmethyl)furo[3,2-d]pyrimidin-4-amine]",0.01 to 100,0.01 to 100,0.01 to 100
"C[C@H](N)Cc1oc2c(NCc3ccco3)nc(Cl)nc2c1Br [Compound 33, 2-[(S)-2-aminopropyl]-3-bromo-5-chloro-7-(furfur-ylamino)-1-oxa-4,6-diaza-indene]",101 to 500,0.01 to 100,0.01 to 100
"Cc1c(C[C@H](C)N)oc2c(NCc3cccs3)nc(Cl)nc12 [Compound 11, 2-[(S)-2-aminopropyl]-5-chloro-3-methyl-7-thenyl-amino-1-oxa-4,6-diaza-indene]",501 to 5000,501 to 5000,

# Other lines, results leading:
IC50 [1] [nM],IC50 (total ATXN3 protein) [nM],EC50 (ATXN3-HiBiT protein) [nM],Compound
501 to 5000,,,"C[C@H](F)[C@H](N)Cc1oc2c(NCc3cccs3)nc(Cl)nc2c1-c1ncco1 [Compound 34, 6-[(2R,3S)-2-amino-3-fluorobutyl]-2-chloro-7-(1,3-oxazol-2-yl)-N-(thiophen-2-ylmethyl)furo[3,2-d]pyrimidin-4-amine]"
101 to 500,101 to 500,101 to 500,"C#Cc1nc(NCc2ccco2)c2oc(C[C@@H](N)[C@H](C)F)c(Br)c2n1 [Compound 28, 2-[(2R,3S)-2-amino-3-fluoro-butyl]-3-bromo-5-ethynyl-7-(furfurylamino)-1-oxa-4,6-diazaindene]"
0.01 to 100,0.01 to 100,0.01 to 100,"C[C@H](F)[C@H](N)Cc1oc2c(NCc3ccco3)nc(Cl)nc2c1Br [Compound 14, 2-[(2R,3S)-2-amino-3-fluoro-butyl]-3-bromo-5-chloro-7-(furfurylamino)-1-oxa-4,6-diazaindene]"
101 to 500,101 to 500,101 to 500,C#Cc1nc(NCc2cccs2)c2oc(C[C@@H](N)[C@H](C)F)c(C#C)c2n1 [Compound 26]
10000 to 40000,10000 to 40000,,"Clc1nc(NCc2ccncc2)c2occc2n1 [Compound 3, [(4-pyridyl)methyl](5-chloro-1-oxa-4,6-diaza-7-indenyl)-amine]"
0.01 to 100,101 to 500,0.01 to 100,"C[C@H](F)[C@H](N)Cc1oc2c(NCc3ccco3)nc(Cl)nc2c1Cl [Compound 16, 2-[(2R,3S)-2-amino-3-fluoro-butyl]-3,5-dichloro-7-(furfur-ylamino)-1-oxa-4,6-diaza-indene]"
101 to 500,101 to 500,101 to 500,"C#Cc1nc(NCc2cccs2)c2oc(C[C@@H](N)[C@H](C)F)c(Br)c2n1 [Compound 27, 6-[(2R,3S)-2-amino-3-fluorobutyl]-7-bromo-2-ethynyl-N-(thiophen-2-ylmethyl)furo[3,2-d]pyrimidin-4-amine]"
501 to 5000,501 to 5000,,"Cc1coc2c(NCc3ccco3)nc(Cl)nc12 [Compound 10, (furfuryl)(5-chloro-3-methyl-1-oxa-4,6-diaza-7-indenyl)-amine]"
101 to 500,101 to 500,101 to 500,"C[C@H](F)[C@H](N)Cc1oc2c(NCc3cccs3)nc(Cl)nc2c1Cl [Compound 17, 2-[(2R,3S)-2-amino-3-fluoro-butyl]-3,5-dichloro-7-thenyl-amino-1-oxa-4,6-diazaindene]"
10000 to 40000,10000 to 40000,,"Clc1nc(NCc2ccccc2)c2occc2n1 [Compound 4, N-benzyl-2-chlorofuro[3,2-d]pyrimidin-4-amine]"
10000 to 40000,10000 to 40000,,"Cc1coc2c(NCc3nccs3)nc(Cl)nc12 [Compound 9, [(1,3-thiazol-2-yl)methyl](5-chloro-3-methyl-1-oxa-4,6-diaza-7-indenyl)amine]"
101 to 500,101 to 500,501 to 5000,"C[C@H](F)[C@H](N)Cc1oc2c(NCc3ccccc3)nc(Cl)nc2c1Br [Compound 19, 2-[(2R,3S)-2-amino-3-fluoro-butyl]-7-benzylamino-3-bromo-5-chloro-1-oxa-4,6-diazaindene]"
10000 to 40000,10000 to 40000,,C/C=C/c1cc2nc(Cl)nc(NCc3ccncc3)c2o1 [Compound 6]
